Results reported in PubChem BioAssay AID328 (DTP/NCI, 2004).
Values joined by “and” are separate entries in the source; they are usually repeats but may differ in a detail not shown here. Equal values may be shown once. Toxic doses and inconclusive results are not listed. How the source made its calls: active means survival T/C of 150% or more; inactive means T/C below 125% in these data.

Tested on: BDF1 mice, P388 leukemia ip, median survival T/C
Experiment: NCI In Vivo Anticancer Drug Screen. Data for tumor model P388 Leukemia (intraperitoneal) in B6D2F1 (BDF1) mice
Conditions: endpoint: median survival time, higher = longer survival
Procedure, shortened: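 Reported as T/C, where T is the survival measurement in dosed animals and C the same measurement in vehicle controls.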

[1] = dose: 100.0 mg/kg/injection, schedule: Q01DX009 (ip), vehicle: saline with Tween-80
[2] = dose: 200.0 mg/kg/injection, schedule: Q01DX009 (ip), vehicle: saline with Tween-80
[3] = dose: 400.0 mg/kg/injection, schedule: Q01DX009 (ip), vehicle: saline with Tween-80
[4] = dose: 25.0 mg/kg/injection, schedule: Q04DX003 (ip), vehicle: saline with Tween-80
[5] = dose: 50.0 mg/kg/injection, schedule: Q01DX009 (ip), vehicle: saline with Tween-80
[6] = dose: 50.0 mg/kg/injection, schedule: Q04DX003 (ip), vehicle: saline with Tween-80
[7] = dose: 100.0 mg/kg/injection, schedule: Q04DX003 (ip), vehicle: saline with Tween-80
[8] = dose: 50.0 mg/kg/injection, schedule: Q01DX009 (ip), vehicle: saline
[9] = dose: 100.0 mg/kg/injection, schedule: Q01DX009 (ip), vehicle: saline
[10] = dose: 200.0 mg/kg/injection, schedule: Q01DX009 (ip), vehicle: saline
[11] = dose: 100.0 mg/kg/injection, schedule: Q04DX003 (ip), vehicle: saline
[12] = dose: 200.0 mg/kg/injection, schedule: Q04DX003 (ip), vehicle: saline
[13] = dose: 400.0 mg/kg/injection, schedule: Q04DX003 (ip), vehicle: saline
[14] = dose: 100.0 mg/kg/injection, schedule: Q01DX001 (ip), vehicle: saline with Tween-80
[15] = dose: 200.0 mg/kg/injection, schedule: Q01DX001 (ip), vehicle: saline with Tween-80
[16] = dose: 400.0 mg/kg/injection, schedule: Q01DX001 (ip), vehicle: saline with Tween-80

Measured: T/C

O=C(O)c1c(Cl)cc(Cl)c(-c2c(Cl)cc(Cl)c(C(=O)O)c2Cl)c1Cl
inactive: [1] 112 % of control | [2] 108 % of control | [3] 108 % of control

CC(=O)OCCCl
inactive: dose: 50.0 mg/kg/injection, schedule: Q04DX003 (ip), vehicle: suspension in saline 99 % of control | dose: 100.0 mg/kg/injection, schedule: Q04DX003 (ip), vehicle: suspension in saline 103 % of control | dose: 200.0 mg/kg/injection, schedule: Q04DX003 (ip), vehicle: suspension in saline 103 % of control | dose: 400.0 mg/kg/injection, schedule: Q04DX003 (ip), vehicle: suspension in saline 114 % of control

CC(=O)c1ccccc1OCC(O)CN1CCN(c2ccccc2)CC1 (stereo unspecified)
inactive: dose: 25.0 mg/kg/injection, schedule: Q01DX009 (ip), vehicle: saline with Tween-80 100 % of control | [4] 113 % of control | [5] 100 % of control | [6] 104 % of control | [1] 96 % of control | [7] 109 % of control

COc1ccc(OC)c(NC(=O)C2CC2)c1
inactive: dose: 75.0 mg/kg/injection, schedule: Q01DX009 (ip), vehicle: saline with Tween-80 100 % of control | dose: 100.0 mg/kg/injection, schedule: Q04DX003 (ip), vehicle: saline sonified 109 % of control | dose: 150.0 mg/kg/injection, schedule: Q01DX009 (ip), vehicle: saline with Tween-80 100 % of control | dose: 200.0 mg/kg/injection, schedule: Q04DX003 (ip), vehicle: saline sonified 113 % of control | dose: 300.0 mg/kg/injection, schedule: Q01DX009 (ip), vehicle: saline with Tween-80 100 % of control | dose: 400.0 mg/kg/injection, schedule: Q04DX003 (ip), vehicle: saline sonified 100 % of control

COc1ccc(S(=O)(=O)NCCC#N)cc1NC(C)=O
inactive: dose: 100.0 mg/kg/injection, schedule: Q01DX001 (ip), vehicle: saline sonified 100 % of control | dose: 200.0 mg/kg/injection, schedule: Q01DX001 (ip), vehicle: saline sonified 100 % of control | dose: 400.0 mg/kg/injection, schedule: Q01DX001 (ip), vehicle: saline sonified 100 % of control

CS(=O)(=O)C1CCCCC1SC#N (stereo unspecified)
inactive: [5] 98 % of control | [1] 115 % of control | [2] 115 % of control

C[N+](C)(C)c1ccc2ccccc2n1
inactive: dose: 3.12 mg/kg/injection, schedule: Q01DX001 (ip), vehicle: Klucel (hydroxypropylcellulose) (HPC) 122 % of control | dose: 6.25 mg/kg/injection, schedule: Q01DX001 (ip), vehicle: Klucel (hydroxypropylcellulose) (HPC) 110 % of control | dose: 12.5 mg/kg/injection, schedule: Q01DX001 (ip), vehicle: Klucel (hydroxypropylcellulose) (HPC) 122 % of control | dose: 18.5 mg/kg/injection, schedule: Q01DX001 (ip), vehicle: Klucel (hydroxypropylcellulose) (HPC) 112 % of control | dose: 25.0 mg/kg/injection, schedule: Q01DX001 (ip), vehicle: saline 120 % of control | dose: 50.0 mg/kg/injection, schedule: Q01DX001 (ip), vehicle: saline 118 % of control

NCCOCC(N)C(=O)O (stereo unspecified)
inactive: [8] 109 % of control | [9] 105 % of control | [10] 98 % of control

CC(=O)Oc1cc(OC(C)=O)c2c(ccc3ccccc32)c1
inactive: [7] 93 % of control | dose: 200.0 mg/kg/injection, schedule: Q04DX003 (ip), vehicle: saline with Tween-80 97 % of control | dose: 400.0 mg/kg/injection, schedule: Q04DX003 (ip), vehicle: saline with Tween-80 93 % of control

COc1cc2c(cc1OC)[C@H]1Cc3cc(OC)c(OC)cc3[C@@H](C2)N1C(C)=O
inactive: dose: 50.0 mg/kg/injection, schedule: Q01DX005 (ip), vehicle: saline with Tween-80 91 % of control | dose: 100.0 mg/kg/injection, schedule: Q01DX005 (ip), vehicle: saline with Tween-80 91 % of control | dose: 200.0 mg/kg/injection, schedule: Q01DX005 (ip), vehicle: saline with Tween-80 93 % of control

CC#CCOCC1CN(c2ccccc2)C(=O)O1 (stereo unspecified)
inactive: [11] 92 % of control | [2] 100 % of control | [12] 92 % of control | [3] 100 % of control | [13] 100 % of control

CC(=O)N1CCCCCC1=O
inactive: [5] 104 % of control | [1] 89 % of control | [2] 104 % of control | [3] 90 % of control

CN(C)c1ccc(/C=C/c2ccc3ccccc3n2)cc1
inactive: [4] 86 % of control | [6] 86 % of control | [7] 86 % of control

N#CO
inactive: dose: 33.0 mg/kg/injection, schedule: Q01DX009 (ip), vehicle: saline 103 % of control (2×) and 113 % of control | dose: 42.0 mg/kg/injection, schedule: Q01DX009 (ip), vehicle: saline 109 % of control | [8] 96 % of control and 122 % of control | dose: 56.0 mg/kg/injection, schedule: Q01DX009 (ip), vehicle: saline 90 % of control | dose: 75.0 mg/kg/injection, schedule: Q01DX009 (ip), vehicle: saline 100 % of control and 121 % of control | [9] 109 % of control

CC(=O)Nc1ccc(Cl)cc1C(=O)c1ccc[nH]1
inactive: dose: 25.0 mg/kg/injection, schedule: Q01DX009 (ip), vehicle: saline 100 % of control | [8] 95 % of control | dose: 50.0 mg/kg/injection, schedule: Q04DX003 (ip), vehicle: saline 102 % of control | [11] 98 % of control | [10] 110 % of control | [12] 100 % of control | dose: 400.0 mg/kg/injection, schedule: Q01DX009 (ip), vehicle: saline 87 % of control | [13] 100 % of control

COc1ccc(Cl)cc1NC(=O)Nc1c(C)n(C)n(-c2ccccc2)c1=O
inactive: dose: 100.0 mg/kg/injection, schedule: Q01DX001 (ip), vehicle: Klucel (hydroxypropylcellulose) (HPC) 100 % of control | dose: 200.0 mg/kg/injection, schedule: Q01DX001 (ip), vehicle: Klucel (hydroxypropylcellulose) (HPC) 100 % of control | dose: 400.0 mg/kg/injection, schedule: Q01DX001 (ip), vehicle: Klucel (hydroxypropylcellulose) (HPC) 95 % of control

CO[C@@H]1[C@@H](OC2OC(C)C(OC3CC(C)(O)C(OC(=O)CC(C)C)C(C)O3)C(N(C)C)C2O)[C@@H](CC=O)C[C@@H](C)C(=O)/C=C/C2O[C@H]2C[C@@H](C)OC(=O)C[C@H]1OC(C)=O (stereo partly specified)
inactive: dose: 50.0 mg/kg/injection, schedule: Q#A X020 (ip), vehicle: water 109 % of control | dose: 100.0 mg/kg/injection, schedule: Q01DX001 (ip), vehicle: water 110 % of control | dose: 100.0 mg/kg/injection, schedule: Q01DX010 (ip), vehicle: water 118 % of control | dose: 100.0 mg/kg/injection, schedule: Q#A X020 (ip), vehicle: water 118 % of control | dose: 150.0 mg/kg/injection, schedule: Q#A X020 (ip), vehicle: water 118 % of control | dose: 200.0 mg/kg/injection, schedule: Q01DX001 (ip), vehicle: water 100 % of control | dose: 200.0 mg/kg/injection, schedule: Q01DX010 (ip), vehicle: water 109 % of control | dose: 200.0 mg/kg/injection, schedule: Q#A X020 (ip), vehicle: water 118 % of control | dose: 300.0 mg/kg/injection, schedule: Q01DX010 (ip), vehicle: water 118 % of control | dose: 400.0 mg/kg/injection, schedule: Q01DX001 (ip), vehicle: water 90 % of control | dose: 600.0 mg/kg/injection, schedule: Q01DX001 (ip), vehicle: water 100 % of control | dose: 1000.0 mg/kg/injection, schedule: Q01DX010 (oral), vehicle: water 86 % of control | dose: 1500.0 mg/kg/injection, schedule: Q01DX010 (oral), vehicle: water 100 % of control

Nc1ncnc2c1ncn2C1CC(O)C(CO)O1 (stereo unspecified)
inactive: dose: 440.0 mg/kg/injection, schedule: Q01DX009 (ip), vehicle: saline with Tween-80 93 % of control | dose: 660.0 mg/kg/injection, schedule: Q01DX009 (ip), vehicle: saline with Tween-80 93 % of control | dose: 1000.0 mg/kg/injection, schedule: Q01DX009 (ip), vehicle: saline with Tween-80 105 % of control

S=C1SC(c2ccccc2)(c2ccccc2)c2ccccc21
inactive: [14] 100 % of control | [15] 94 % of control | [16] 93 % of control

CNC(=S)ON1CCCCC1
inactive: [5] 116 % of control | [1] 114 % of control | [2] 121 % of control

OC1CCC2(CC1)SCCS2
inactive: [14] 96 % of control | [15] 103 % of control | [16] 101 % of control

CS(=O)(=O)OC[C@@H](O)[C@@H](O)COS(C)(=O)=O
inactive: [8] 116 % of control | [9] 107 % of control
